Measured values published in ChEMBL document CHEMBL6103627, “(±)-Feionemycin A and Chromonemycins A-D, Rearranged Aromatic Polyketides Uncovered by Type II Polyketide Gene Cluster Expression” (J Nat Prod, 2025).
Counter-ions that a name gives are not always drawn.

Tests used:
[1] = system: MDA-MB-231; assay: Antitumor activity against human MDA-MB-231 cells assessed as inhibition of cell growth by SRB assay; type: functional, cell-based
[2] = Antitumor activity against human Cisplatin/etoposide-resistant NCI-H446/EP cells assessed as inhibition of cell growth by SRB assay; type: functional, cell-based
[3] = system: ASPC1; assay: Antitumor activity against human ASPC1 cells assessed as inhibition of cell growth by SRB assay; type: functional, cell-based
[4] = system: NCI-H446; assay: Antitumor activity against human NCI-H446 cells assessed as inhibition of cell growth by SRB assay; type: functional, cell-based
[5] = system: K562; assay: Antitumor activity against human K562 cells assessed as inhibition cell growth by MTT assay; type: functional, cell-based
[6] = Antitumor activity against human L02 cells assessed as inhibition of cell growth by SRB assay; type: toxicity, cell-based
[7] = system: Bacillus cereus; assay: Antimicrobial activity against Bacillus cereus ATCC 4342 assessed as inhibition of microbial growth incubated for 24 hrs by microdilution method; type: functional, organism-based
[8] = system: Staphylococcus aureus; assay: Antimicrobial activity against methicillin-resistant Staphylococcus aureus assessed as inhibition of microbial growth incubated for 24 hrs by microdilution method; type: functional, organism-based
[9] = system: Staphylococcus aureus; assay: Antimicrobial activity against Staphylococcus aureus ATCC 29213 assessed as inhibition of microbial growth incubated for 24 hrs by microdilution method; type: functional, organism-based

IC50 [3] [µM]	IC50 [4] [µM]	Structure (SMILES)	IC50 [1] [µM]	IC50 [2] [µM]	IC50 [5] [µM]	IC50 [6] [µM]	Activity [7]	Activity [8]	Activity [9]
> 50	> 50	Cc1cc(=O)c2c3c(c(O)cc2o1)/C(=C/c1cc(=O)cc(O)o1)C[C@@H](O)C3	> 50	> 50	> 50	> 50	–	–	–
> 50	> 50	Cc1cc(=O)c2c3c(c(O)cc2o1)[C@](O)(Cc1cc(=O)cc(O)o1)C[C@@H](O)C3	> 50	> 50	> 50	> 50	–	–	–
5.91	0.8	COc1cccc2c1C(=O)c1c(O)c3c(c(O)c1C2=O)C[C@@](O)(C(=O)CO)C[C@@H]3O[C@H]1C[C@H](N)[C@H](O)[C@H](C)O1 [DOXORUBICIN HYDROCHLORIDE]	–	11.2	–	0.33	–	–	–

Further lines, the compound ahead of its results:

Structure (SMILES)	IC50 [3] [µM]	IC50 [4] [µM]	IC50 [1] [µM]	IC50 [2] [µM]	IC50 [5] [µM]	IC50 [6] [µM]	Activity [7]	Activity [8]	Activity [9]
Cc1cc(=O)c2c(CCCC(=O)Cc3cc(O)cc(=O)o3)cc(O)cc2o1	> 50	< 50	> 50	> 50	> 50	< 50	Weak_effect	Weak_effect	Weak_effect
CC1=CC(=O)c2c(O)cccc2[C@]12Oc1cc(O)cc(C)c1C2=O	> 50	> 50	> 50	> 50	> 50	> 50	Weak_effect	Weak_effect	Weak_effect
Cc1cc(=O)c2c(C/C=C/[C@@H](O)Cc3cc(O)cc(=O)o3)cc(O)cc2o1	< 50	> 50	> 50	> 50	> 50	> 50	–	–	–
CC1=CC(=O)c2c(O)cccc2[C@@]12Oc1cc(O)cc(C)c1C2=O	> 50	2.26	> 50	< 50	> 50	> 50	Weak_effect	Weak_effect	Weak_effect
